Measured values from patent US20180155757A1, “IDENTIFICATION OF BACTERIA THAT ARE RESISTANT TO CARBAPENEMS BY MEMBRANE IMPERVIOUSNESS” (BIOMÉRIEUX, priority 2015, published 2018).
Read-outs that look alike come from different tables or passages of the source.

How the values were obtained:
Experiment in all cases: Etest MIC of indicator carbapenems on MH II agar without/with PMBN
Type in all cases: cell-based
[1] = system: E. cloacae 9402034; conditions: E. cloacae 9402034 (membrane impermeability), Table 4a
Procedure: (§1) The determinations of antibiotic MIC were carried out on solid culture media with the Etest® method. To do this, Etest® strips (bioMérieux, France) were used: • Etest® Imipenem IM 32, and • Etest® Ertapenem ETP 32, and also solid culture media, differing from one another by virtue of their non-inhibitory concentrations of PMBN.
(§2) These solid culture media are prepared in Petri dishes (0=145 mm; V=50 ml) on a base of MH II Agar (Becton Dickinson®, United States), more or less supplemented with PMBN. The PMBN concentrations range from 0 up to concentrations equivalent to one fifth of the MIC of PMBN (⅕ MICPMBN).
(§3) Using a swab and the Retro C80™ rota-plater (bioMérieux, France), the culture media were inoculated with the bacteria, originating from an inoculum of 0.5 McFarland, prepared in 0.85% NaCl solution from colonies subcultured the day before on MH II agar.
(§4) The various Etest® strips are then deposited on the surface of the culture media. After 16 to 20 hours of incubation at 35° C., the MICS were read.
(§5) To do this, imipenem and ertapenem were used as indicator carbapenems. Non-inhibitory concentrations of PMBN, equivalent to concentrations of one tenth ( 1/10), one eighth (⅛) and one fifth (⅕) of the MIC of PMBN, were applied.
(§6) In the light of the MICPMBN values previously identified, very predominantly much higher than 300 μg/ml, the following standard concentrations were retained and applied to the bacterial strains to be tested: 50, 100, 150, 200 and 300 μg/ml.
(§7) By way of indicator carbapenems according to the invention, in addition to imipenem (IM) and ertapenem (ETP), meropenem (MP) was also tested. Like the other two antibiotics, meropenem was used in the form of Etest® strips (Etest® Meropenem MP 32 from the company bioMérieux, France).
(§8) The methods used to prepare the new culture media and to carry out the antibiotic-sensitivity tests are identical to those described above.

[2] = system: E. aerogenes 9203076
Procedure: as §1, §2, §3, §4, §5, §6, §7, §8

[3] = system: K. pneumoniae 1002015; conditions: Klebsiella pneumoniae, 1002015, K. pneumoniae 1002015 (porin−), Table 4, read-out: MIC
Procedure: as §1, §2, §3, §4, §5, §6, §7, §8

[4] = system: K. pneumoniae 1204034
Procedure: as §1, §2, §3, §4, §5, §6, §7, §8

[5] = system: E. coli 1204043
Procedure: as §1, §2, §3, §4, §5, §6, §7, §8

[6] = system: E. aerogenes 1204048; conditions: E. aerogenes 1204048 (membrane impermeability), Table 4a, in µg/mL
Procedure: as §1, §2, §3, §4, §5, §6, §7, §8

[7] = system: E. aerogenes 9306071; conditions: E. aerogenes 9306071 (membrane impermeability), Table 4a
Procedure: as §1, §2, §3, §4, §5, §6, §7, §8

[8] = system: E. cloacae 1204051 (membrane impermeability)
Procedure: as §1, §2, §3, §4, §7, §8

[9] = system: K. pneumoniae KP 63 (porin−); conditions: Klebsiella pneumoniae
Procedure: as §1, §2, §3, §4, §7, §8

[10] = system: E. cloacae 1204056 (membrane impermeability)
Procedure: as §1, §2, §3, §4, §7, §8

[11] = system: E. cloacae 1008074 (VIM producer)
Procedure: as §1, §2, §3, §4, §7, §8

[12] = system: K. pneumoniae 1108003 (KPC-3 producer)
Procedure: as §1, §2, §3, §4, §7, §8

[13] = system: E. cloacae 1008080 (IMP producer); conditions: in µg/mL
Procedure: as §1, §2, §3, §4, §7, §8

Compound: C[C@@H](O)[C@H]1C(=O)N2C(C(=O)O)=C(S[C@@H]3CN[C@H](C(=O)N(C)C)C3)[C@H](C)[C@H]12 [MP, meropenem]
- MIC ([1]; [PMBN] 0): 16 µg/mL
- MIC ([1]; [PMBN] 100): 2 µg/mL
- MIC ([1]; [PMBN] 200): 2 µg/mL
- MIC ([1]; [PMBN] 300): 3 µg/mL
- MIC ([2]; E. aerogenes 9203076 (membrane impermeability), [PMBN] 0, Table 4a, in µg/mL): 4
- MIC ([2]; E. aerogenes 9203076 (membrane impermeability), [PMBN] 100, Table 4a, in µg/mL): 2
- MIC ([2]; E. aerogenes 9203076 (membrane impermeability), [PMBN] 200, Table 4a, in µg/mL): 1.5
- MIC ([2]; E. aerogenes 9203076 (membrane impermeability), [PMBN] 300, Table 4a, in µg/mL): 0.5-0.75
- MIC ([2]; Klebsiella aerogenes, 9203076, E. aerogenes 9203076 (porin−), [PMBN] 0, Table 4, read-out: MIC): 4 µg/mL
- MIC ([2]; Klebsiella aerogenes, 9203076, E. aerogenes 9203076 (porin−), [PMBN] 150 μg/ml, Table 4, read-out: MIC): 0.5 µg/mL
- MIC ([2]; Klebsiella aerogenes, 9203076, E. aerogenes 9203076 (porin−), [PMBN] 200 μg/ml, Table 4, read-out: MIC): 0.5 µg/mL
- MIC ([3]; [PMBN] 0): 2 µg/mL
- MIC ([3]; [PMBN] 150 μg/ml): 0.19 µg/mL
- MIC ([3]; [PMBN] 200 μg/ml): 0.19 µg/mL
- MIC ([4]; K. pneumoniae 1204034 (membrane impermeability), [PMBN] 0, Table 4a): 16 µg/mL
- MIC ([4]; K. pneumoniae 1204034 (membrane impermeability), [PMBN] 100, Table 4a): 1.5 µg/mL
- MIC ([4]; K. pneumoniae 1204034 (membrane impermeability), [PMBN] 200, Table 4a): 0.75 µg/mL
- MIC ([4]; K. pneumoniae 1204034 (membrane impermeability), [PMBN] 300, Table 4a): 0.38 µg/mL
- MIC ([4]; Klebsiella pneumoniae, 1204034, K. pneumoniae 1204034 (porin−), [PMBN] 0, Table 4, read-out: MIC): 12 µg/mL
- MIC ([4]; Klebsiella pneumoniae, 1204034, K. pneumoniae 1204034 (porin−), [PMBN] 150 μg/ml, Table 4, read-out: MIC): 0.5 µg/mL
- MIC ([4]; Klebsiella pneumoniae, 1204034, K. pneumoniae 1204034 (porin−), [PMBN] 200 μg/ml, Table 4, read-out: MIC): 0.25 µg/mL
- MIC ([5]; E. coli 1204043 (membrane impermeability), [PMBN] 0, Table 4a, in µg/mL): 4
- MIC ([5]; E. coli 1204043 (membrane impermeability), [PMBN] 100, Table 4a, in µg/mL): 0.75
- MIC ([5]; E. coli 1204043 (membrane impermeability), [PMBN] 200, Table 4a, in µg/mL): 0.38
- MIC ([5]; E. coli 1204043 (membrane impermeability), [PMBN] 300, Table 4a, in µg/mL): 0.19
- MIC ([5]; Escherichia coli, 1204043, E. coli 1204043 (porin−), [PMBN] 0, Table 4, read-out: MIC): 3 µg/mL
- MIC ([5]; Escherichia coli, 1204043, E. coli 1204043 (porin−), [PMBN] 150 μg/ml, Table 4, read-out: MIC): 0.064 µg/mL
- MIC ([5]; Escherichia coli, 1204043, E. coli 1204043 (porin−), [PMBN] 200 μg/ml, Table 4, read-out: MIC): 0.008 µg/mL
- MIC ([6]; [PMBN] 0): >32
- MIC ([6]; [PMBN] 100): 1.5
- MIC ([6]; [PMBN] 200): 1
- MIC ([6]; [PMBN] 300): 0.5-1
- MIC ([7]; [PMBN] 0): 4 µg/mL
- MIC ([7]; [PMBN] 100): 1.5 µg/mL
- MIC ([7]; [PMBN] 200): 1.5 µg/mL
- MIC ([7]; [PMBN] 300): 0.5 µg/mL
- MIC ([8]; [PMBN] 0, Table 4a): 4 µg/mL
- MIC ([8]; [PMBN] 100, Table 4a): 2 µg/mL
- MIC ([8]; [PMBN] 200, Table 4a): 0.25 µg/mL
- MIC ([8]; [PMBN] 300, Table 4a): 0.25 µg/mL
- MIC ([9]; [PMBN] 0): 0.25 µg/mL
- MIC ([9]; [PMBN] 50 μg/ml): 0.25 µg/mL
- MIC ([9]; [PMBN] 100 μg/ml): 0.094 µg/mL
- MIC ([9]; [PMBN] 150 μg/ml): 0.064 µg/mL
- MIC ([9]; [PMBN] 200 μg/ml): 0.023 µg/mL
- MIC ([10]; [PMBN] 0, Table 4a): 12 µg/mL
- MIC ([10]; [PMBN] 100, Table 4a): 2 µg/mL
- MIC ([10]; [PMBN] 200, Table 4a): 1 µg/mL
- MIC ([10]; [PMBN] 300, Table 4a): 0.75 µg/mL
- MIC ([11]; [PMBN] 0, Table 4a): 0.38 µg/mL
- MIC ([11]; [PMBN] 100, Table 4a): 1.5 µg/mL
- MIC ([11]; [PMBN] 200, Table 4a): 1 µg/mL
- MIC ([11]; [PMBN] 300, Table 4a): 1.5 µg/mL
- MIC ([12]; [PMBN] 0, Table 4a): 6 µg/mL
- MIC ([12]; [PMBN] 100, Table 4a): > 32 µg/mL
- MIC ([12]; [PMBN] 200, Table 4a): > 32 µg/mL
- MIC ([12]; [PMBN] 300, Table 4a): 4 µg/mL
- MIC ([13]; [PMBN] 0, Table 4a): 2
- MIC ([13]; [PMBN] 100, Table 4a): 8
- MIC ([13]; [PMBN] 200, Table 4a): 6
- MIC ([13]; [PMBN] 300, Table 4a): 4-6
